Literature values as cited in patent US20060183719A1 (priority 2005, published 2006).
Read-outs that look alike come from different tables or passages of the source.

absorption (administered orally)	absorption (in vivo, po)	Compound
about 90%		C[C@H]1c2cccc(O)c2C(=O)C2=C(O)[C@]3(O)C(=O)C(C(N)=O)=C(O)[C@@H](N(C)C)[C@@H]3[C@@H](O)[C@@H]21 [doxycycline]
	about 90%	CN(C)c1ccc(O)c2c1CC1CC3C(N(C)C)C(O)=C(C(N)=O)C(=O)C3(O)C(O)=C1C2=O (centres unmarked) [minocycline]
